For the data set the following is noted: instrument: DT, stepped-field.

Consider 47 molecules from the C3SDB collision cross section collection.

In the case of `Nc1nc(=O)c2ncn([C@H]3C[C@H](O)[C@@H](COP(=O)(O)O)O3)c2[nH]1` [2'-Deoxyguanosine 5'-Monophosphate], the “collision cross section (N2)” value is, setting by setting: ([M+H]+) 178.96 Å²; ([M+Na]+) 173.87 Å².

As to `NCCP(=O)(O)O` [2-Aminoethylphosphonate], the “collision cross section (N2)” value ([M+H]+) was determined as 132.21 Å².

On to `Cc1ccc2cc3ccccc3cc2c1` [2-Methylanthracene], for which, for the setting “[M+H]+”, the “collision cross section (N2)” value was 138.61 Å².

As for `Cc1ccc2ccccc2c1` [2-methylnaphthalene], where the note is “[M+H]+”, the “collision cross section (N2)” value came to 124.57 Å².

`Cn1cncc1C[C@H](N)C(=O)O` [3-Methyl-L-histidine]: the “collision cross section (N2)” value ([M+H]+) amounted to 136.57 Å².

Consider `Cc1ncsc1CCO` [4-Methyl-5-Thiazolethanol], for which the “collision cross section (N2)” value ([M+H]+) is recorded as 145.34 Å².

In the case of `CCCCC/C=C/C/C=C\C[C@@H]1O[C@@H]1C/C=C\CCCC(=O)O` [8(9)-EET], the “collision cross section (N2)” value ([M+Na]+) came to 186.83 Å².

As to `CCCCC/C=C\C/C=C\C=C\[C@@H](O)C/C=C\CCCC(=O)O` [8S-HETE], the “collision cross section (N2)” value ([M+Na]+) was found to be 187.17 Å².

Turning to `CCCCC/C=C\C=C\C(=O)CCCCCCCC(=O)O` [9-OxoODE], the “collision cross section (N2)” value ([M+H]+) came to 184.2 Å² and the “collision cross section (N2)” value ([M+Na]+) is recorded as 199.5 Å².

With `CCCCC/C=C\C[C@H]1O[C@H]1C/C=C\C/C=C\CCCC(=O)O` [11(12)-EET], the “collision cross section (N2)” value ([M+Na]+) was 187.87 Å².

Take `CCCCC/C=C\C[C@H](O)/C=C/C=C\C/C=C\CCCC(=O)O` [12S-HETE]: where the note is “[M+Na]+”, the “collision cross section (N2)” value was found to be 193.33 Å².

As to `COc1ccc(-c2cc(=O)c3c(O)cc(O)cc3o2)cc1` [Acacetin], for the setting “[M+H]+”, the “collision cross section (N2)” value is recorded as 167.06 Å².

With `O=C1C(=O)c2cccc3cccc1c23` [Acenaphthenequinone], the “collision cross section (N2)” value ([M+H]+) is recorded as 145.51 Å².

Turning to `C1=Cc2cccc3cccc1c23` [Acenaphthylene], where the note is “[M+H]+”, the “collision cross section (N2)” value was 125.71 Å².

With `CCCCC/C=C\C/C=C\C/C=C\C/C=C\CCCCCC(=O)O` [Adrenic Acid], the “collision cross section (N2)” value reads like this: ([M+H]+) 189.41 Å²; ([M+Na]+) 192.83 Å².

`CC1(C)S[C@@H]2[C@H](NC(=O)[C@H](N)c3ccccc3)C(=O)N2[C@H]1C(=O)O` [Ampicillin]: the “collision cross section (N2)” value is, setting by setting: ([M+H]+) 193.17 Å²; ([M+Na]+) 187.93 Å².

On to `c1cncc(C2CCCCN2)c1` (stereo unspecified) [Anabasine], for which the “collision cross section (N2)” value ([M+H]+) is 140.18 Å².

`NC(=NCCC[C@H](N)C(=O)O)N[C@@H](CC(=O)O)C(=O)O` [Argininosuccinic Acid]: the “collision cross section (N2)” value ([M+H]+) is 167.39 Å² and the “collision cross section (N2)” value ([M+Na]+) stood at 172.22 Å².

For `CCNc1nc(Cl)nc(NC(C)C)n1` [Atrazine], the “collision cross section (N2)” value ([M+H]+) stood at 150.74 Å².

In the case of `C1=Cc2c3ccc4ccccc4c3cc3cccc1c23` [Benz(j)aceanthrylene], the “collision cross section (N2)” value ([M+H]+) came out at 155.08 Å².

`c1ccc2c(c1)cc1ccc3cccc4ccc2c1c34` [Benzo(a)Pyrene]: the “collision cross section (N2)” value ([M+H]+) was determined as 152.05 Å².

For the molecule `CCCCC/C=C\C/C=C\C/C=C\CCCCCCC(=O)O` [Bishomo-gamma-linolenic Acid], for the setting “[M+Na]+”, the “collision cross section (N2)” value is reported as 183.38 Å².

With `CC12CCC(CC1=O)C2(C)C` (stereo unspecified) [Camphor], for the setting “[M+H]+”, the “collision cross section (N2)” value was 142.8 Å².

As for `NCCC(=O)N[C@@H](Cc1cnc[nH]1)C(=O)O` [Carnosine], where the note is “[M+H]+”, the “collision cross section (N2)” value is on record as 152.18 Å².

For `OC[C@H]1O[C@@H](O[C@H]2[C@H](O)[C@@H](O)[C@H](O[C@H]3[C@H](O)[C@@H](O)[C@H](O[C@H]4[C@H](O)[C@@H](O)C(O)O[C@@H]4CO)O[C@@H]3CO)O[C@@H]2CO)[C@H](O)[C@@H](O)[C@@H]1O` (stereo partly specified) [Cellotetraose], under “[M+Na]+”, the “collision cross section (N2)” value is on record as 225 Å².

For the molecule `O=C(O)CC(O)(CC(=O)O)C(=O)O` [Citric Acid], the “collision cross section (N2)” value is, setting by setting: ([M+H]+) 148.9 Å²; ([M+Na]+) 146.11 Å².

`Oc1cc(O)c2cc(O)c(-c3ccc(O)c(O)c3)[o+]c2c1` [Cyanidin]: the “collision cross section (N2)” value ([M]+) is given as 168.33 Å².

`OC[C@H]1O[C@H](O[C@H]2[C@H](O)[C@H](O)COC2(O)CO)[C@H](O)[C@@H](O)[C@@H]1O` (stereo partly drawn) [D-(+)-Turanose]: under “[M+Na]+”, the “collision cross section (N2)” value is listed as 177 Å².

With `OC[C@H]1OC(O)[C@H](O)[C@@H](O)[C@H]1O` (stereo partly drawn) [D-Galactose], the “collision cross section (N2)” value ([M+Na]+) came to 142.39 Å².

As for `OC[C@H]1OC(O)[C@H](O)[C@@H](O)[C@@H]1O` (stereo partly drawn) [D-Glucose], under “[M+Na]+”, the “collision cross section (N2)” value came out at 147.72 Å².

For the molecule `O=C(O)[C@H]1OC(O)[C@H](O)[C@@H](O)[C@@H]1O` (stereo partly drawn) [D-Glucuronate], the “collision cross section (N2)” value ([M+Na]+) was 153.13 Å².

For the molecule `O=C[C@H](O)COP(=O)(O)O` [D-Glyceraldehyde 3-Phosphate], where the note is “[M+H]+”, the “collision cross section (N2)” value was 135.86 Å².

Regarding `O=P(O)(O)OC[C@H]1OC(O)[C@H](O)[C@@H]1O` (stereo partly drawn) [D-Ribose 5-Phosphate], the “collision cross section (N2)” value ([M+Na]+) is recorded as 155.8 Å².

Take `O=C(CO)[C@H](O)[C@H](O)COP(=O)(O)O` [D-Ribulose 5-Phosphate]: the “collision cross section (N2)” value ([M+Na]+) is recorded as 153.25 Å².

For the molecule `O=C[C@H](O)[C@@H](O)[C@H](O)COP(=O)(O)O` [D-Xylose 5-phosphate], the “collision cross section (N2)” value ([M+Na]+) is on record as 151.4 Å².

In the case of `O=C(CO)[C@@H](O)[C@H](O)CO` [D-Xylulose], the “collision cross section (N2)” value ([M+Na]+) was 141.76 Å².

Take `Nc1nc(=O)c2c([nH]1)NCC(CNc1ccc(C(=O)N[C@@H](CCC(=O)O)C(=O)O)cc1)=N2` [Dihydrofolate]: for the setting “[M+H]+”, the “collision cross section (N2)” value stood at 193.63 Å².

Turning to `N#Cc1c[nH]cc1-c1cccc2c1OC(F)(F)O2` [Fludioxonil], the “collision cross section (N2)” value ([M+Na]+) worked out at 165.7 Å².

On to `CN(C)C(=O)Nc1cccc(C(F)(F)F)c1` [Fluometuron], for which the “collision cross section (N2)” value is, setting by setting: ([M+H]+) 152.2 Å²; ([M+Na]+) 161.2 Å².

On to `CP(=O)(O)CCC(N)C(=O)O` (stereo unspecified) [Glufosinate], for which the “collision cross section (N2)” value is on record as 140.15 Å² ([M+H]+) and 142.7 Å² ([M+Na]+).

Take `Oc1ccc(O)cc1` [Hydroquinone]: the “collision cross section (N2)” value ([M+H]+) is on record as 128.79 Å².

For the molecule `O=C(O)[C@@H]1CCCCN1` [L-Pipecolic Acid], the “collision cross section (N2)” value ([M+H]+) stood at 130.93 Å².

Regarding `CCCCCCCCCCCCCCCCCCC(=O)OC[C@@H](O)COP(=O)([O-])OCC[N+](C)(C)C` [LPC(19:0)], the “collision cross section (N2)” value ([M+H]+) is 241.9 Å².

For `CCCCCCCCCCCC(=O)O[C@H](CC(=O)[O-])C[N+](C)(C)C` [Lauroyl-L-carnitine], the “collision cross section (N2)” value ([M+Na]+) came to 217.5 Å².

Regarding `CCCCC/C=C\C[C@@H](O)/C=C/C=C/C=C\[C@@H](O)CCCC(=O)O` [Leukotriene B4], the “collision cross section (N2)” value ([M+Na]+) was 196.05 Å².

In the case of `CCCCC/C=C\C\C=C/C=C/C=C/[C@@H](SC[C@H](NC(=O)CC[C@H](N)C(=O)O)C(=O)NCC(=O)O)[C@@H](O)CCCC(=O)O` [Leukotriene C4], the “collision cross section (N2)” value is, setting by setting: ([M+H]+) 257.4 Å²; ([M+Na]+) 260.57 Å².

For `CCCCC[C@H](O)/C=C/C=C\C=C\C=C\[C@@H](O)[C@@H](O)CCCC(=O)O` [Lipoxin A4], for the setting “[M+Na]+”, the “collision cross section (N2)” value was found to be 197.89 Å².
